# What was measured:
# [1] = system: C2C12 myoblasts; experiment: Western blot of UPRmt markers, prohibitins and cell cycle proteins in NR-treated C2C12 myoblasts; type: cell-based, mouse
# Experimental: Western blotting performed as described in Example 3. The following primary antibodies were used: anti-HSP60 (Enzo Life Science); anti-β-actin (Sigma); anti-PHB (Biolegend); anti-PHB2 (Santa Cruz); anti-CKD4 (Novus biologicals); anti-CCND1 (Santa Cruz); anti-CCND3 (Santa Cruz); anti-HSP90 (BD Biosciences); HSP70 (Abcam); and anti-CLPP (Sigma). Cell culture and treatments were prepared according to description of Example 3. C2C12 mouse myoblasts were grown in DMEM (4.5 g/1 glucose, Gibco) supplemented with 10% FBS and penicillin/streptomycin (1×, Gibco). Cell transformation with Phb (Santa Cruz) and Phb2 shRNA (Santa Cruz) were performed using jetPEI DNA transfection kit (Polyplus), according to manufacturer's instructions. Cells were treated with 1 mM NR or PBS for 6 hours before cell harvesting or fixation. Respirometry on C2C12 myoblasts. Basal and uncoupled oxygen consumption rates (OCRs) and the extracellular acidification rate (ECAR) was measured using the Seahorse extracellular flux bioanalyzer (XF96, Seahorse Bioscience Inc.). To uncouple mitochondria, 5 uM of FCCP was injected after a basal respiration measurement. All measurements were performed in triplicates and results were normalized to total protein amount (C2C12 cells), assessed using a Bradford kit (Bio-Rad).
# [2] = Grip strength test; type: in vivo, C57BL/6J mice; settings: aged mice, NR diet, FIG. 3G
# Experimental: Grip strength test. Muscle strength was assessed by a grip strength behavior task. The grasp strength of each mouse for all four limbs was measured on a pull-grid assembly connected to a grip strength meter (Columbus Instruments). The mouse was drawn along a straight line parallel to the grid until the grip is broken, providing the peak force in grams. This was repeated 4 times with 5 minute intervals between measurements.
# [3] = system: MuSCs; experiment: Gene expression analyses (qPCR) in freshly isolated MuSCs of NR-treated mice; type: cell-based, C57BL/6J mice
# Experimental: Gene expression analyses. Total RNA was extracted from MuSCs by sorting cells directly into TriPure RNA isolation reagent (Roche) or from cultured C2C12 myoblasts using TriPure reagent according to the product manual. Total RNA was transcribed to cDNA using QuantiTect Reverse Transcription Kit (Qiagen). Expression of selected genes was analyzed using the LightCycler480 system (Roche) and LightCycler® 480 SYBR Green I Master reagent (Roche). The acidic ribosomal protein 36b4 gene (ribosomal protein, large, P0, Rp1p0) was used as housekeeping reference. FACS based muscle stem cell isolation. Gastrocnemius, soleus, quadriceps, and tibialis anterior muscles from both limbs were excised and transferred into PBS on ice. All muscles were trimmed, minced and digested with 0.1 mg/ml of type II collagenase (Sigma) in PBS for 15 min at 37° C. Samples were then centrifuged at 750 g for 5 min and further digested in 1 mg/ml of collagenase/dispase (Roche) for 30 mins at 37° C. Muscle slurries were sequentially filtered through 100, 70 and 40 μm cell strainers. The isolated cells were then washed in washing buffer (PBS+2.5% FBS) then resuspended in 200 μl of washing buffer and immediately stained with antibodies, including the MuSC markers CD31 (1:800, eBioscience, eFluor450 conjugated); CD34 (1:200, eBioscience, eFluor660 conjugated); CD45 (1:200, eBioscience, eFluor450 conjugated); CD11b (1:400, eBioscience, eFluor450 conjugated); Sca-1 (1:1000, eBioscience, PE-Cy7 conjugated); and α7 integrin (1:300, MBL) for 30 min at 4° C. Secondary staining was performed with a mixture of goat anti-mouse antibody (1:800, Life technologies, Alexa Fluor 488 conjugated) and propidium Iodide (PI, Sigma) for 15 min at 4° C. in the dark. Stained cells were analysed and sorted using the FACSAria II instrument (BD Biosciences). Debris and dead cells were excluded by forward scatter, side scatter and PI gating. Cells were sorted either directly on slides for immunostaining and into TriPure (Roche) reagent for RNA extraction.
# [4] = system: MuSCs; experiment: MuSC autofluorescence (405/450) as measure of relative NAD(P)H, cellular redox ratio; type: cell-based; settings: MuSCs isolated from NR-treated Mdx mice, FIG. 6G-I
# Experimental: Determining cellular redox ratio. NAD+ and NADH quantification and ratio were measured using a kit from Biovision (Milpitas, Calif.), following providers' instructions. With continuous muscle regeneration, MuSCs in Mdx mice are abnormally active at a young age, leading to MuSC depletion and dysfunction later in life. […] Thus the self-renewal capacity of Mdx mouse MuSCs was tested. The cellular redox ratio decreases as MuSCs differentiate (Fulco et al., 2003, Molecular Cell, 12: 51), which can be detected by the increase in 405/450 autofluorescence (Quinn et al., 2013, Scientific Reports, 3: 3432). […] We then performed β-galactosidase staining on primary MuSCs isolated from Mdx mice, with or without NR treatment, and cultured these cells with NR or vehicle in vitro. […] The prevention of MuSCs senescence in NR-treated Mdx mice was confirmed by the attenuation of γH2AX and cleaved caspase-3 immunostaining (FIG. 6K). To evaluate MuSC function, CTX-induced muscle regeneration was examined in NR-treated mice.
# [5] = system: primary MuSCs; experiment: Respirometry on MuSCs; type: cell-based, C57BL/6J mice; settings: primary MuSCs isolated from NR-treated aged mice
# Experimental: Respirometry on MuSCs. Basal and uncoupled oxygen consumption rates (OCRs) were measured using the Seahorse extracellular flux bioanalyzer (XF96, Seahorse Bioscience Inc.). To uncouple mitochondria, 5 uM of FCCP was injected after a basal respiration measurement. All measurements were performed in triplicates and results were normalized to total cell number seeded (primary MuSCs) assessed using a Bradford kit (Bio-Rad).
# [6] = freshly isolated aged MuSCs, NR diet, FIG. 4H
smiles,measurement,setting,value
"NC(=O)c1ccc[n+]([C@@H]2O[C@H](CO)[C@@H](O)[C@H]2O)c1 [NR, nicotinamide riboside]",dependence of NR effects on cell senescence on prohibitins,"[1]; C2C12, Phb1 and Phb2 shRNA knockdown with 6-hour NR treatment, overexpression, FIG. 5C,D",PHB-dependent
same,Phb1 and Phb2 expression,"[1]; C2C12 myoblasts, NR treatment, FIG. 5A",induced Phb1 and Phb2 expression
same,"UPRmt markers (HSP60, CLPP)","[1]; NR-treated C2C12 mouse myoblasts, FIG. 5A",similarly induced
same,limb grip strength,[2],improvements
same,mitochondrial TCA and OXPHOS gene expression,"[3]; aged MuSCs, NR diet, FIG. 4I",largely rescued
same,expression of cell cycle related genes,[3]; [6],increasing the expression of cell cycle related genes
same,mRNA levels of CDKN1A and related senescence indicators,[3]; [6],significantly reduced
same,Phb1 and Phb2 expression,"[3]; young and aged MuSCs, NR 400 mg/kg/day 6 weeks, FIG. 5B",induced Phb1 and Phb2 expression
same,405/450 autofluorescence of MuSCs,[4],significant reduction in autofluorescence
same,oxidative respiration,[5],trend in oxidative respiration was replicated

# From US10905704B2, “Agents and methods using thereof for the prevention and treatment of stem cell muscle disorders” (ECOLE POLYTECHNIQUE FEDERALE DE LAUSANNE (EPFL), priority 2015, dated 2021)
